Data as given in US20210308188A1, “CELL CLUSTER INCLUDING OLFACTORY NEURON OR PRECURSOR CELL THEREOF, AND METHOD FOR PRODUCING SAME” (SUMITOMO CHEMICAL COMPANY, LIMITED, priority 2018, published 2021).

How the values were obtained:
Format in all cases: cell-based
[1] = tested on: human iPS cells; assay: Study for first Wnt signaling pathway inhibitory substance in cell cluster production (Experiment 9); conditions: added from start of suspension culturing (IWP-2, IWP-3, IWP-4 2 μM; Wnt C-59 20 nM; KY02111 1 μM); BMP4 on day 2; day 28
Description: In Experiment 9, a study of cell cluster production efficiency was performed for the type of the first Wnt signaling pathway inhibitory substance, using human iPS cells. The experiments were performed in accordance with the procedures shown in the upper section of FIG. 22, and the same manipulations as in Experiment 3 were performed except for those specifically indicated. The suspension culturing of the human iPS cells subjected to maintenance culturing and step (a) was started in a medium supplemented with a first Wnt signaling pathway inhibitory substance, Y27632 (final concentration 20 μM) and SB-431542 (final concentration 1 μM).
As the first Wnt signaling pathway inhibitory substance, IWP-2 (manufactured by Tocris Biosciences, final concentration 2 μM), IWP-3 (manufactured by Cayman Chemicals, final concentration 2 μM), IWP-4 (manufactured by Cayman Chemicals, final concentration 2 μM), Wnt C-59 (manufactured by Cayman Chemicals, final concentration 20 nM), or KY02111 (manufactured by Cayman Chemicals, final concentration 1 μM) was used. As a control in which the first Wnt signaling pathway inhibitory substance was not added, DMSO was added.
On day 2 after the start of suspension culturing, a serum-free medium being free of Y27632 and containing each first Wnt signaling pathway inhibitory substance, SB-431542 and BMP4 (final concentration 1.5 nM) was added at 100 μl per well. In addition, on day 3 after the start of suspension culturing, the medium was half exchanged with a serum-free medium being free of Y27632 and BMP4 and containing SB-431542, K02288, FGF2, Heparin Sodium, and EGF. K02288, FGF2, Heparin Sodium, EGF were included to final concentrations in the well were 10 μM, 20 ng/ml, 10 μg/ml and 20 ng/ml, respectively. On days 6, 10, 13, 17, 21, and 24 after the start of suspension culturing, the medium was half exchanged with a serum-free medium being free of Y27632 and BMP4 and containing each first Wnt signaling pathway inhibitory substance, SB-431542, K02288, FGF2, Heparin Sodium, and EGF.
On day 28 after the start of suspension culturing, bright-field observation was performed with an inverted microscope (FIGS. 22A to 22F).
The cell clusters on day 28 after the start of suspension culturing were subjected to immunofluorescence staining in accordance with the same method as in Comparative Experiment 1. As primary antibodies, an anti-Six1 antibody and an anti-pan-cytokeratin antibody staining placode and non-neural epithelial tissues, and an anti-Sox2 antibody staining placode and neural cells, described in Table 1, were used. As fluorescently labeled secondary antibodies, an Alexa488-labeled donkey anti-rabbit antibody, a CF555-labeled donkey anti-goat antibody, and an Alexa647-labeled donkey anti-mouse antibody, described in Table 2, were used to perform multiple staining. Hoechst 33342 was used for contrast staining of the nucleus. The positive and negative determinations of the staining results were performed in the same manner as in Preliminary Experiment 1.
Under the conditions in which the first Wnt signaling pathway inhibitory substance was not added, no non-neural epithelial tissue was formed on the surface of the cell aggregate even when BMP4 was added on day 2 after the start of suspension culturing.

[2] = tested on: human iPS cell line HC-6 #10; assay: Combination use of Wnt signaling pathway-activating substance and inhibitory substance in cell cluster production (Experiment 14)
Description: Cell clusters were produced in accordance with the procedures shown in the upper section of FIG. 28 by using Wnt signaling pathway-activating substance and inhibitory substance in combination. Human iPS cells (HC-6 #10 cell line, obtained from the Institute of Physical and Chemical Research) were subjected to maintenance culturing and step (a) in the same manner as in Experiment 1. The suspension culturing was started on a 96-well culture plate in the same manner as in Experiment 1, except that the number of cells per well was 9×10^3 cells. At the start of suspension culturing (day 0 after the start of suspension culturing, start of step (1)), Y27632 (final concentration 20 μM), IWP-2 (final concentration 2 μM), and SB-431542 (final concentration 1 μM) were added to the serum-free medium. In addition, CHIR99021 (manufactured by Cayman Chemical, Inc.) was added as a Wnt signaling pathway-activating substance such that the final concentration was 300 nM. When the Wnt signaling pathway inhibitory substance IWP-2 and the Wnt signaling pathway-activating substance CHIR99021 are used in combination, β-catenin-dependent Wnt Canonical Pathway is activated and β-catenin-independent Wnt-non-Canonical Pathway is inhibited. On day 2 after the start of suspension culturing, a serum-free medium being free of Y27632 and containing SB-431542, BMP4, IWP-2 and CHIR99021 was added at 100 μl per well (start of step (2)). BMP4 was added to the medium at 3 nM to be a final concentration in the well of 1.5 nM. On day 3 after the start of suspension culturing, the medium was half exchanged with a serum-free medium being free of Y27632 and BMP4 and containing IWP-2, SB-431542, FGF2 and CHIR99021 (start of step (3a)). Thereafter, on days 6 and 10 after the start of suspension culturing, the medium was half exchanged with a serum-free medium being free of Y27632 and BMP4 and containing IWP-2, SB-431542, FGF2, CHIR99021, and K02288 (start of step (3c)). […]

[3] = tested on: human iPS cells; assay: Cell cluster production with EGF and second Wnt signaling pathway inhibitory substance (Experiment 6); conditions: EGF 20 ng/ml added on day 13 and XAV939 300 nM on day 17 (both added); day 28
Description: In Experiment 6, as shown in the upper section of FIG. 17, a cell cluster including an olfactory receptor neuron or a precursor cell thereof was produced by performing step (3c) as step (3) from the beginning, adding EGF from the middle of step (3c), and then culturing in the presence of XAV939 as a second Wnt signaling pathway inhibitory substance. The same manipulations as in Experiment 3 were performed except for those specifically indicated.
Specifically, steps (a), (1) and (2) were started with maintenance-cultured human iPS cells, and then, on day 3 after the start of suspension culturing, the medium was half exchanged with a serum-free medium being free of Y27632 and BMP4 and containing IWP-2, SB-431542, FGF2, Heparin Sodium and K02288 (start of step (3c)). FGF2, Heparin Sodium, and K02288 were included to be final concentrations in the well of 20 ng/ml, 10 μg/ml, and 1 μM, respectively. Thereafter, on days 6 and 10 after the start of suspension culturing, the medium was half exchanged with a serum-free medium being free of Y27632 and BMP4 and containing IWP-2, SB-431542, FGF2, Heparin Sodium and K02288. In addition, on day 13 after the start of suspension culturing, in addition to the above factors, EGF (manufactured by PrimeGene Co., Ltd.) was added to be a final concentration of 20 ng/ml. […]

[4] = CHIR99021 300 nM added together with IWP-2 2 μM, day 21

| Compound | formation of aggregates having non-neural epithelial tissues on the surface [1] | further results |
| --- | --- | --- |
| COc1ccccc1-n1c(SCC(=O)Nc2nc3ccc(C)cc3s2)nc2c(c1=O)SCC2 [IWP-4, N-(6-methyl-2-benzothiazolyl)-2-[[3,4,6,7-tetrahydro-3-(2-methoxyphenyl)-4-oxothieno[3,2-d]pyrimidin-2-yl]thio]-acetamide] | aggregates having non-neural epithelial tissues on the surface were formed | – |
| Cc1ccc2nc(NC(=O)CSc3nc4c(c(=O)n3-c3ccccc3)SCC4)sc2c1 [IWP-2, N-(6-Methyl-2-benzothiazolyl)-2-[(3,4,6,7-tetrahydro-4-oxo-3-phenylthieno[3,2-d]pyrimidin-2-yl)thio]-acetamide] | aggregates having non-neural epithelial tissues on the surface were formed | – |
| Cc1cc(-c2ccc(CC(=O)Nc3ccc(-c4cccnc4)cc3)cc2)ccn1 [Wnt C-59, 2-[4-(2-Methylpyridin-4-yl)phenyl]-N-[4-(pyridin-3-yl)phenyl]acetamide] | aggregates having non-neural epithelial tissues on the surface were formed | – |
| Cc1c[nH]c(-c2cnc(NCCNc3ccc(C#N)cn3)nc2-c2ccc(Cl)cc2Cl)n1 [CHIR99021] | – | formation of olfactory epithelial-like tissue on the external of the cell cluster [2, 4]: formed an olfactory epithelial-like tissue on the external of the cell cluster; number of dead cells in neural tissues inside of the cell clusters [2, 4]: reduced; extent of CHIR99021 at which Wnt-Canonical Pathway activity promotes survival of nervous tissues inside of the cell cluster and epithelial formation ([2]; combination with IWP-2): ≤ 3 µM |
| EGF: EGF signaling pathway-activating substance, manufactured by PrimeGene (NSDSECPLSHDGYCLHDGVCMYIEALDKYACNCVVGYIGERCQYRDLKWWELR; Epidermal growth factor; UniProt P01133 971-1023, looked up) | – | stability of non-neural epithelial tissue part including olfactory receptor neuron or precursor cell versus conditions without addition [3]: more stable |
| Cc1ccc2nc(NC(=O)CSc3nc4c(c(=O)n3-c3ccc(F)cc3)SCC4)sc2c1 [IWP-3, 2-[[3-(4-fluorophenyl)-3,4,6,7-tetrahydro-4-oxothieno[3,2-d]pyrimidin-2-yl]thio]-N-(6-methyl-2-benzothiazolyl)-acetamide] | aggregates having non-neural epithelial tissues on the surface were formed | – |
| O=c1[nH]c(-c2ccc(C(F)(F)F)cc2)nc2c1CSCC2 [3,5,7,8-Tetrahydro-2-[4-(trifluoromethyl)phenyl]-4H-thiopyrano[4,3-d]pyrimidin-4-one] | – | stability of non-neural epithelial tissue part including olfactory receptor neuron or precursor cell versus conditions without addition [3]: more stable |
| COc1ccc(CCC(=O)Nc2nc3ccc(Cl)cc3s2)cc1OC [KY02111, N-(6-Chloro-2-benzothiazolyl)-3,4-dimethoxybenzenepropanamide] | aggregates having non-neural epithelial tissues on the surface were formed | – |
